Measurements from US12698306B2, “Bile acid-GCPII inhibitor conjugates to treat inflammatory diseases, including inflammatory bowel disease (IBD)” (The Johns Hopkins University, priority 2020, dated 2026).

Legend:
[1] = system: dextran sodium sulfate (DSS)-induced colitis; assay: Dextran sodium sulfate (DSS)-induced colitis model, disease activity index (DAI); format: in vivo, mice (C57Bl/6NHsd); details: for anti-IBD activity: disease activity index (DAI): once daily oral
Procedure: (§1) Colitis was induced using either 2.5% DSS (FIG. 1A, FIG. 1B, and FIG. 1C) or 4.0% DSS (FIG. 1D, FIG. 1E, FIG. 1F, FIG. 1G, and FIG. 1H) resulting in the characteristic development of diarrhea, rectal bleeding and body weight loss. These parameters were evaluated daily, scored and summated to compute a disease activity index (DAI). Mice received once daily oral treatment with test article or vehicle beginning on Study Day 0 and continuing through Study Day 7. […] All data depicted as mean+/−SEM. 2-way ANOVA, *p<0.05, **p<0.01, ***p<0.001;
as §1, with “using” for “using either 2.5% DSS (FIG. 1A, FIG. 1B, and FIG. 1C) or”, “DSS” for “DSS (FIG. 1D, FIG. 1E, FIG. 1F, FIG. 1G, and FIG. 1H)”, “6.” for “7.”
(§2) Six-week old male C57Bl/6NHsd mice were challenged with 4.0% DSS in drinking water from Study Day 0-5 followed by exposure to freshwater, inducing severe acute colitis. Oral (S)-LTP592 was administered once daily beginning on study day 0 at 1 mg/kg, 10 mg/kg and 100 mg/kg 2-PMPA molar equivalent doses. (FIG. 4A) 100 mg/kg eq. […] (S)-LTP592, while GCPII was only 40% inhibited at the non-efficacious dose of 1 mg/kg eq. (n=8/group; **p<0.01 2-tailed t-test). (FIG. 4C) Strikingly, 100 mg/kg eq. […] (FIG. 4D, FIG. 4E, and FIG. 4F) Efficacy of 100 mg/kg eq. (S)-LTP592 in the DSS-colitis model was driven by improvements in (FIG. 4C) stool score and (FIG. 4D) bleeding score (n=15/group; ***p<0.001, *p<0.05 2-way ANOVA);
(§3) Six-week old male C57Bl/6NHsd mice were challenged with 4.0% DSS in drinking water from study day 0-6 followed by exposure to freshwater. Oral (S)-LTP592 was administered once daily beginning on study day 0 at 100 mg/kg 2-PMPA molar equivalent doses. (FIG. 5A, FIG. 5B, and FIG. 5C) 100 mg/kg eq. […] (FIG. 5D, FIG. 5E, FIG. 5F, and FIG. 5G) A subset of mice (n=8/group) were euthanized on study day 5, prior to fulminant colitis. Their colons were harvested and processed for flow cytometry. […] All DSS-induced changes in myeloid inflammatory cell populations were attenuated by (S)-IBD3540 treatment (n=8-9/group, **p<0.01, *p<0.05, 2-tailed t-test).
Six- to eight-week-old male C57BM6NHsd mice were acquired from Harlan Laboratories/Envigo (Indianapolis, IN). Animals were housed in the Johns Hopkins animal facility under controlled temperature (25° C.) and photoperiod (12-hour-light/12-hour-dark cycle) with access to standard diet and water (or specified DSS-containing drinking water) ad libitum. All animal studies were approved by the Animal Care and Use Committee of Johns Hopkins University, Baltimore, MD and adhered to all of the applicable institutional and governmental guidelines for the humane treatment of laboratory animals. Mice were housed 4-5 per cage and allowed to acclimate to their environment for at least 5 days before inclusion in experiments. Mice (n=5-30/group) were randomized by body weight into equivalent experimental groups: (a) DSS with vehicle or (b) DSS with test article. Acute colitis was induced by administration of 2.5%-4.0% (w/v) DSS (MW 40,000-50,000; Affymetrix Santa Clara, CA) in the drinking water for 5 days, followed by exposure to freshwater for two days. Daily oral (PO) dosing of vehicle or test article was initiated on study day 0 and was continued until sacrifice on study day 7. […]

recombinant human GCPII = recombinant human GCPII (Homo sapiens, UniProt Q04609); assay: GCPII inhibition, radiosubstrate based assay; format: biochemical; details: GCPII IC50 ratio, (S)- vs (R)-enantiomer
Procedure: FIG. 3A, FIG. 3B, FIG. 3C, and FIG. 3D show IC50 values for selected bile acid GCPII inhibitor conjugates. IC50s were determined for selected inhibitors using a previously described radiosubstrate based assay employing recombinant human GCPII. Rojas et al., 2002.
Glutamate Carboxypeptidase II (GCPII) is a metallopeptidase that catalyzes the hydrolysis of N-acetylated aspartate-glutamate (NAAG) to N-acetyl aspartate (NAA) and glutamate and cleaves terminal glutamate moieties sequentially from folate polyglutamate (Ristau et al., 2013; Mesters et al, 2006; Slusher et al, 2013). In certain embodiments, the presently disclosed compounds of formula (I) are GCPII inhibitors. As used herein, a GCPII inhibitor is a molecule that decreases or inhibits the activity of GCPII. The modulation of the activity of GCPII may be detected by use of an assay for the intrinsic N-acetylated alpha-linked acidic dipeptidase (AALADase) activity of GCPII (Tang et al, 2003; Robinson et al 1987: Lupoid et al., 2002; U.S. Patent App. Pub. No. 20110064657). Inhibition curves may be determined using semi-log plots and IC50 values determined at the concentration at which enzyme activity was inhibited by 50%.

[2] = system: myeloid inflammatory cell populations in colon; assay: Flow cytometry of colonic lamina propria mononuclear cells in DSS colitis; format: in vivo, mice; details: 4.0% DSS, 100 mg/kg eq. oral, study day 5
Procedure: as §3
On DSS study day 5, a subset of mice (n=8-9/group) were euthanized and colons were processed for flow cytometry. Specifically, the distal 3 cm of colon was separated, mesenteric fat dissected away and intestinal contents removed. Then colon was transected longitudinally, washed with PBS, and minced thoroughly. Minced colon tissues were transferred into 5 ml HBSS with 10 mM HEPES containing 5% FBS and 0.2 mg/ml collagenase D (Sigma). Tissues were digested at 37° C. for 20 min with constant agitation (250 r.p.m.), then vigorously vortexed for 20 s. The resulting cell suspension containing LPMCs was filtered through a 70-μm nylon cell strainer and washed with 10 ml PBS. […]

GCPII = molecular target: T1, GCPII (Mus musculus, UniProt O35409); assay: GCPII enzymatic activity in murine colon tissue (radioenzymatic assay); format: in vivo, mice; details: colon collected 4-hour post dose on study day 6
T1 construct: from tissue; host or cells: mouse proximal colon
Procedure: as §2
A 5-mm length location-matched segment of proximal colon was harvested and flash-frozen following euthanasia on study day 6 of DSS-induced colitis, 4-hours after the final dose with vehicle or compound. Glutamate carboxypeptidase activity was measured using a radioenzymatic assay that was optimized and described previously. Rojas et al., 2002; Robinson et al., 1987.

[3] = 2.5% or 4.0% DSS, Study Day 0-7, 10 to 100 mg/kg 2-PMPA molar equivalent dose, DAI on Study Days 6 and 7
[4] = 4.0% DSS, 100 mg/kg eq. oral, study day 6
[5] = 4.0% DSS, Study Day 0-6, DAI on Study Days 4 through 6

T1 sequence (O35409 whole entry): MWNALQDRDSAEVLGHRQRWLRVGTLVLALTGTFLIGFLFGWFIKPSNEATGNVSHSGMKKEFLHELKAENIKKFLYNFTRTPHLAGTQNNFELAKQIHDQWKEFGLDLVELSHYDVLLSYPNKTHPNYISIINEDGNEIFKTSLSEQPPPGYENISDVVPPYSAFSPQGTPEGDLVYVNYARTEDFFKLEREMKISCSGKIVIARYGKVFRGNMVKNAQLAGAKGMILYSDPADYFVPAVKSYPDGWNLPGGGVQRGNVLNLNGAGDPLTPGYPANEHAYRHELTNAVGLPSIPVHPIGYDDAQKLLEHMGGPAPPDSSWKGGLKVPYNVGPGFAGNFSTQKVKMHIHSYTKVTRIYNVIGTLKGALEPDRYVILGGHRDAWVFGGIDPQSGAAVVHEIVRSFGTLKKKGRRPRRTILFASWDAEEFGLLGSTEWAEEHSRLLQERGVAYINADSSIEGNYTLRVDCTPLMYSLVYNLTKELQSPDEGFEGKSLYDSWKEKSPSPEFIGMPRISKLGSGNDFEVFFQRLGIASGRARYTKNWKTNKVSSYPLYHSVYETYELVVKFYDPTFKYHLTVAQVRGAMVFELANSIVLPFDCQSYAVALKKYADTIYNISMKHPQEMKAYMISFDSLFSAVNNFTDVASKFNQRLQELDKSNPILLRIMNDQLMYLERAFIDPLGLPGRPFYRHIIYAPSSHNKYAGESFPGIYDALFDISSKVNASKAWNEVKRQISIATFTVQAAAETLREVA
recombinant human GCPII, sequence (Q04609 whole entry): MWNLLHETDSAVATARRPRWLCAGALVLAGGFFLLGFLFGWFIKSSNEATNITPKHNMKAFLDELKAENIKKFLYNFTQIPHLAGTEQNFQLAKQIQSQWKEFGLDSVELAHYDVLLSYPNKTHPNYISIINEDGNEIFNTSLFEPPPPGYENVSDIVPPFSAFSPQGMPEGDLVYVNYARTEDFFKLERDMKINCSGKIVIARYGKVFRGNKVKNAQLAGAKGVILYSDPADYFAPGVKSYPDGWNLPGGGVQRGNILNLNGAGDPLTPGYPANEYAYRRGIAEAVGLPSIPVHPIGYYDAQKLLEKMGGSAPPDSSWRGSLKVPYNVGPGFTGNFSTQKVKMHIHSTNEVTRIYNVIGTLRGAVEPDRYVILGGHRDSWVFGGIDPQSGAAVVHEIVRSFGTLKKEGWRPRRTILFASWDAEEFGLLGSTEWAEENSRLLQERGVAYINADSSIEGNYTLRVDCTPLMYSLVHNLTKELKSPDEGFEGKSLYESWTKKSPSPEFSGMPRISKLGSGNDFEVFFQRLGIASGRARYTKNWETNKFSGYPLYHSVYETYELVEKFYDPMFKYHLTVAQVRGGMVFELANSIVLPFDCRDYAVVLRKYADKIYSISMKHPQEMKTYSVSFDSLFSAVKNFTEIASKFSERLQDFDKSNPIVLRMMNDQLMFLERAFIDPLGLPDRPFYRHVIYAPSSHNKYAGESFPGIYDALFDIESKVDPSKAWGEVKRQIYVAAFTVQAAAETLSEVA

C[C@H](CCC(=O)OCOC(=O)CCC(CP(=O)(O)O)C(=O)O)C1CCC2C3CC[C@@H]4C[C@H](O)CC[C@]4(C)C3CC[C@@]21C (mixture of isomers) [LTP582, 5-((((4R)-4-((3R,10S,13R)-3-Hydroxy-10,13-dimethylhexadecahydro-1H-cyclopenta[a]phenanthren-17-yl)pentanoyl)oxy)methoxy)-5-oxo-2-(phosphonomethyl)pentanoic acid]
anti-IBD activity: disease activity index (DAI) [1, 3]: inactive

C[C@H](CCC(=O)OCOC(=O)CCC(CP(=O)(O)O)C(=O)O)C1CCC2C3C(C[C@H](O)[C@@]21C)[C@@]1(C)CC[C@@H](O)C[C@H]1C[C@H]3O (mixture of isomers) [LTP588, 5-Oxo-2-(phosphonomethyl)-5-((((4R)-4-((3R,7R,10S,12S,13R)-3,7,12-trihydroxy-10,13-dimethylhexadecahydro-1H-cyclopenta[a]phenanthren-17-yl)pentanoyl)oxy)methoxy) pentanoic acid]
anti-IBD activity: disease activity index (DAI) [1, 3]: inactive

C[C@H](CCC(=O)OCOC(=O)CC[C@H](CP(=O)(O)O)C(=O)O)C1CCC2C3CC[C@@H]4C[C@H](O)CC[C@]4(C)C3C[C@H](O)[C@@]21C (stereo partly drawn) [(S)-LTP592]
bleeding score ([1]; 4.0% DSS, 100 mg/kg eq. oral): improvements
stool score ([1]; 4.0% DSS, 100 mg/kg eq. oral): improvements
colon histology (scored by a blinded pathologist) [1, 4]: significantly improved
colon length [1, 4]: normalization of colon length
number and depth of ulcerations and degree of inflammatory infiltration [1, 4]: reduced
efficacy in DSS colitis ([1]; 4.0% DSS, oral once daily, 1 mg/kg eq.): non-efficacious
efficacy in DSS colitis ([1]; 4.0% DSS, oral once daily, 10 mg/kg eq.): effective
colitis severity (DAI) ([1]; 4.0% DSS, oral once daily, 100 mg/kg eq., as early as study day 3): significantly decreased
potency relative to (R)-LTP592 (recombinant human GCPII): 150 fold
DSS-induced changes in myeloid inflammatory cell populations (CD11b+ white blood cells, neutrophils, monocytes, transitioning monocytes) [2]: attenuated
inhibition of GCPII enzymatic activity in colon tissue (GCPII; 1 mg/kg eq. oral): 40%
inhibition of GCPII enzymatic activity in colon tissue (GCPII; 10 mg/kg eq. oral): > 75%
inhibition of GCPII enzymatic activity in colon tissue (GCPII; 100 mg/kg eq. oral): > 75%

C[C@H](CCNC(=O)CCC(CP(=O)(O)O)C(=O)O)[C@H]1CCC2C3C(CC[C@@]21C)[C@@]1(C)CC[C@@H](O)C[C@H]1C[C@@H]3O (stereo partly drawn) [IS-101-020, 5-(((3R)-3-((3R,7S,10S,13R,17R)-3,7-Dihydroxy-10,13-dimethylhexadecahydro-1H-cyclopenta[a]phenanthren-17-yl)butyl)amino)-5-oxo-2-(phosphonomethyl)pentanoic acid]
anti-IBD activity: disease activity index (DAI) [1, 3]: significant reductions in DAI

C[C@H](CCNC(=O)CCC(CP(=O)(O)O)C(=O)O)[C@H]1CCC2C3CC[C@@H]4C[C@H](O)CC[C@]4(C)C3C[C@H](O)[C@@]21C (stereo partly drawn) [IS-101-077, 5-(((3R)-3-((3R,10S,12S,13R,17R)-3,12-Dihydroxy-10,13-dimethylhexadecahydro-1H-cyclopenta[a]phenanthren-17-yl)butyl)amino)-5-oxo-2-(phosphonomethyl)pentanoic acid]
anti-IBD activity: disease activity index (DAI) [1, 3]: significant reductions in DAI

CC(C)C[C@H](NC(=O)N[C@@H](CCC(=O)OCOC(=O)CC[C@@H](C)[C@H]1CCC2C3CC[C@@H]4C[C@H](O)CC[C@]4(C)C3C[C@H](O)[C@@]21C)C(=O)O)C(=O)O (stereo partly drawn) [IS-102-138, (2S,6S,16R)-6-Carboxy-16-((3R,10S,12S,13R,17R)-3,12-dihydroxy-10,13-dimethylhexadecahydro-1H-cyclopenta[a]phenanthren-17-yl)-2-isobutyl-4,9,13-trioxo-10,12-dioxa-3,5-diazaheptadecanoic acid]
anti-IBD activity: disease activity index (DAI) [1, 5]: significant reductions in DAI

C[C@H](CCC(=O)OCOC(=O)CCC(CP(=O)(O)O)C(=O)O)C1CCC2C3C(CC[C@@]21C)[C@@]1(C)CC[C@@H](O)C[C@H]1C[C@@H]3O (stereo partly drawn) [LTP1054, 5-((((4R)-4-((3R,7S,12S,13R)-3,12-Dihydroxy-10,13-dimethylhexadecahydro-1H-cyclopenta[a]phenanthren-17-yl)pentanoyl)oxy)methoxy)-5-oxo-2-(phosphonomethyl) pentanoic acid]
anti-IBD activity: disease activity index (DAI) [1, 3]: inactive

C[C@H](CCC(=O)OCOC(=O)c1ccc(CC(CCC(=O)NO)C(=O)O)cc1)C1CCC2C3CC[C@@H]4C[C@H](O)CC[C@]4(C)C3C[C@H](O)[C@@]21C (some centres unmarked) [TT-220420]
anti-IBD activity: disease activity index (DAI) [1, 5]: significant reductions in DAI
